# From patent US9049865B2, “Use of fungicidal active substances for controlling mycoses on plants of the palm family” (Bayer Intellectual Property GmbH, priority 2010, dated 2015)
# “And” between values parts separate entries of the source, which are not always exact repeats. Equal values may be shown once. Read-outs that look alike come from different tables or passages of the source.
# Test system: Ganoderma boninense
# Assay: Microtiter plate growth test of Ganoderma boninense mycelium in potato-dextrose broth, absorption by photometer
# Format: cell-based
# Details: for EC50: Ganoderma boninense; for efficacy in controlling basal stem rot (BSR) disease, in words: verbal assessment of the EC50 data
# Procedure: • 1. Culturing of the isolates on potato-dextrose agar (PDA) • 2. Preparation of a liquid potato-dextrose broth (PDB) as inoculum • For the development of the mycelium, 10 small pieces of the mycelium were transferred into 200 ml of the liquid potato-dextrose broth (PDB) and cultured for 7 days in a greenhouse cabinet at 26° C. • The mycelium was isolated, transferred into 200 ml of fresh liquid potato-dextrose broth supplemented with 25 mg/l enrofloxacin and comminuted using a homogenizer (5 seconds, Ultra Turrax). Thereafter this mycelial suspension was adjusted to two mycelial densities: • Inoculum A: “High mycelial density” • Homogenized mycelial suspension made up to 400 ml with PDB+enrofloxacin • Inoculum B: “Low mycelial density” • 100 ml of inoculum A made up to 400 ml with PDB+enrofloxacin • 3. Microtiter plate test: • Concentration range from 0.0-0.0064-0.032-0.16-4-20 to 100 ppm for each fungicide (active component) • Fungicide and inoculum were distributed using an automatic dispenser • 4. Evaluation (growth determination): • This is carried out every 2 days (1st evaluation after 4 days) by measuring the absorption over 13 days, using a photometer. II. Results
# EC50 & (MEC50): Fungicide concentration at which the fungal growth is reduced by 50%: […]
# [1] = 144 h, G. boninense, high mycelial density, after 6 days, read-out: MEC50s (mean EC50 data)
# [2] = 144 h, G. boninense, low mycelial density, after 6 days, read-out: MEC50s (mean EC50 data)
# [3] = 312 h, G. boninense, high mycelial density, after 13 days, read-out: MEC50s (mean EC50 data)
# [4] = 312 h, G. boninense, low mycelial density, after 13 days, read-out: MEC50s (mean EC50 data)
# [5] = G. boninense, high mycelial density, after 6 days, single determinations
# [6] = G. boninense, low mycelial density, after 6 days, single determinations
# [7] = 144 h, G. boninense, high mycelial density, after 6 days, single determinations, read-out: EC50 data
# [8] = 144 h, G. boninense, low mycelial density, after 6 days, single determinations, read-out: EC50 data
# [9] = G. boninense, high mycelial density, after 13 days, single determinations
# [10] = G. boninense, low mycelial density, after 13 days, single determinations
# [11] = 312 h, G. boninense, high mycelial density, after 13 days, single determinations, read-out: EC50 data
# [12] = 312 h, G. boninense, low mycelial density, after 13 days, single determinations, read-out: EC50 data
Compound,EC50 [1],EC50 [2],EC50 [3],EC50 [4],EC50 data [5],EC50 data [6],EC50 [7],EC50 [8],EC50 data [9],EC50 data [10],EC50 [11],EC50 [12],"efficacy in controlling basal stem rot (BSR) disease, in words","EC50 (144 h, read-out: EC50 data, G. boninense, low mycelial density, after 6 days, single determinations)","EC50 (144 h, read-out: MEC50s (mean EC50 data), G. boninense, low mycelial density, after 6 days)","EC50 (312 h, read-out: EC50 data, G. boninense, low mycelial density, after 13 days, single determinations)","EC50 (312 h, read-out: MEC50s (mean EC50 data), G. boninense, low mycelial density, after 13 days)"
"Cn1cc(C(=O)Nc2ccc(F)cc2-c2ccc(Cl)c(Cl)c2)c(C(F)F)n1 [Bixafen, N-(3′,4′-dichloro-5-fluoro-1,1′-biphenyl-2-yl)-3-(difluoromethyl)-1-methyl-1H-pyrazole-4-carboxamide]",0.07 µg/mL,0.027 µg/mL,0.096 µg/mL,0.096 µg/mL,,,,,,,,,,,,,
"Cc1nn(C)c(F)c1C(=O)Nc1ccccc1C(C)CC(C)C (stereo not drawn) [Penflufen, N-[2-(1,3-dimethylbutyl)phenyl]-5-fluoro-1,3-dimethyl-1H-pyrazole-4-carboxamide]",0.008 µg/mL,0.006 µg/mL,0.022 µg/mL,0.015 µg/mL,0.0098 µg/mL and 0.0087 µg/mL,0.0065 µg/mL,0.0076 µg/mL,0.0064 µg/mL,,,,,,,,,
O=c1c2cc(F)ccc2nc(-n2cncn2)n1-c1ccc(Cl)cc1Cl [Fluquinconazole],0.034 µg/mL,0.023 µg/mL,0.041 µg/mL,0.066 µg/mL,,0.0178 µg/mL and 0.0228 µg/mL and 0.0239 µg/mL and 0.0224 µg/mL and 0.022 µg/mL,,0.0308 µg/mL,0.0450 µg/mL and 0.0443 µg/mL and 0.0458 µg/mL and 0.0352 µg/mL and 0.0386 µg/mL,0.0532 µg/mL and 0.0915 µg/mL and 0.0656 µg/mL and 0.0577 µg/mL and 0.075 µg/mL,0.0393 µg/mL,0.0591 µg/mL,,,,,
OC(Cc1ccccc1Cl)(Cn1nc[nH]c1=S)C1(Cl)CC1 (stereo not drawn) [Prothioconazole],0.008 µg/mL,0.012 µg/mL,0.009 µg/mL,0.014 µg/mL,0.0069 µg/mL and 0.0087 µg/mL and 0.0117 µg/mL and 0.0073 µg/mL,,0.0064 µg/mL,,0.0084 µg/mL and 0.0068 µg/mL,,0.0064 µg/mL,,best activity,,,,
CC(C)(C)C(O)C(Oc1ccc(-c2ccccc2)cc1)n1cncn1 (stereo not drawn) [Bitertanol],0.062 µg/mL,0.061 µg/mL,0.054 µg/mL,0.121 µg/mL,0.0518 µg/mL and 0.0614 µg/mL and 0.058 µg/mL and 0.0542 µg/mL and 0.0679 µg/mL,,0.0801 µg/mL,,,0.1355 µg/mL and 0.1360 µg/mL and 0.1146 µg/mL and 0.1235 µg/mL and 0.1014 µg/mL,,0.118 µg/mL,similarly effective,,,,
CCCN(CCOc1c(Cl)cc(Cl)cc1Cl)C(=O)n1ccnc1 [Prochloraz],,,,,,0.3566 µg/mL and 0.5803 µg/mL and 0.5515 µg/mL and 0.6018 µg/mL and 0.5704 µg/mL,,,,0.6978 µg/mL and 1.0994 µg/mL and 0.7737 µg/mL and 0.8261 µg/mL and 1.1128 µg/mL,,,,0.497 µg/mL,0.519 µg/mL,0.94 µg/mL,0.895 µg/mL
CON=C(C(=O)OC)c1ccccc1CON=C(C)c1cccc(C(F)(F)F)c1 [Trifloxystrobin],0.006 µg/mL,0.006 µg/mL,0.01 µg/mL,0.02 µg/mL,,,0.0064 µg/mL,0.0064 µg/mL,0.0119 µg/mL and 0.0081 µg/mL and 0.0115 µg/mL,,0.0064 µg/mL,,outstanding efficacy,,,,
CC(C)(C)C(O)(CCc1ccc(Cl)cc1)Cn1cncn1 (stereo not drawn) [Tebuconazole],0.006 µg/mL,0.006 µg/mL,0.011 µg/mL,0.007 µg/mL,,,0.0064 µg/mL,0.0064 µg/mL,,0.0065 µg/mL and 0.0067 µg/mL and 0.0072 µg/mL,,0.0086 µg/mL,best activity,,,,
CO/N=C(/C1=NOCCO1)c1ccccc1Oc1ncnc(Oc2ccccc2Cl)c1F [Fluoxastrobin],,0.036 µg/mL,,0.158 µg/mL,,,,,,,,,less effective,,,,
CC(C)(C)C(O)C(Oc1ccc(Cl)cc1)n1cncn1 (stereo not drawn) [Triadimenol],0.052 µg/mL,0.093 µg/mL,0.06 µg/mL,0.098 µg/mL,0.0446 µg/mL and 0.0475 µg/mL and 0.0712 µg/mL and 0.0434 µg/mL and 0.0767 µg/mL,0.08 µg/mL and 0.1062 µg/mL and 0.1077 µg/mL and 0.1076 µg/mL and 0.0638 µg/mL,0.0386 µg/mL,0.106 µg/mL,,0.0963 µg/mL and 0.0723 µg/mL and 0.1064 µg/mL and 0.1074 µg/mL,,0.103 µg/mL,similarly effective,,,,
